Data: US11377442B2, “Small molecule agonists and antagonists of NR2F6 activity” (ZANDER THERAPEUTICS, INC., priority 2016, dated 2022)
Like-named read-outs stand apart in the source and are kept apart here.

Assays:
Type in all cases: cell-based
NR2F6 = target: T1, NR2F6 (Homo sapiens, UniProt P10588); test: NR2F6 agonist screening, Firefly signal cmpd/DMSO; conditions: for Activity, cmpd/DMSO: Table 31
T1 construct: expressed in transfected cells; also transient transfection
T1 sequence (P10588 1-404): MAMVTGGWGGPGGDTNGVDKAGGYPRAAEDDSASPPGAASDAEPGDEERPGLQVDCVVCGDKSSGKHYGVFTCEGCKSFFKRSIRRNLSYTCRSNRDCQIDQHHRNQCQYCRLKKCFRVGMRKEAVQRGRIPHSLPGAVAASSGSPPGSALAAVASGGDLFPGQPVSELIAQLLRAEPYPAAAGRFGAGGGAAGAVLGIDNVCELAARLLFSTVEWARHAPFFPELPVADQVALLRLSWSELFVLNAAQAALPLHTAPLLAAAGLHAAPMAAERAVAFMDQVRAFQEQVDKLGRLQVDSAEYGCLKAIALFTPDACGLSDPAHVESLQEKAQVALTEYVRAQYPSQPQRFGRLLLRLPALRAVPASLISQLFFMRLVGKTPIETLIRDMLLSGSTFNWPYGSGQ

HEK293 pGL4 = test: Firefly_pGL signal, cmpd/DMSO (pGL4 control cells); conditions: Homo sapiens
NR2F6 LBD = target: T2, NR2F6 LBD (Homo sapiens, UniProt P10588); test: NR2F6 LBD transient transfection; conditions: LBD
T2 construct: expressed in transfected cells
T2 sequence (P10588 165-393 limits assumed): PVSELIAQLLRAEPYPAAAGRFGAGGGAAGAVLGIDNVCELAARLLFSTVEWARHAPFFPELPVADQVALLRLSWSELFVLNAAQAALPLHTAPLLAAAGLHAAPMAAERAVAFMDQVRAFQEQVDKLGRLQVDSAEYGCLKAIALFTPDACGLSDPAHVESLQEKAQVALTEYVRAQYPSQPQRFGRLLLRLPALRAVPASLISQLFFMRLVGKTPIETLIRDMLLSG
Method in brief: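 LBD-transfected cells treated at 40, 10, 2 and 0.5 μM (4 replicates); cytotoxicity measured in parallel, normalized to DMSO (0%) and zero signal (100%). Higher concentrations excluded where signal loss reflected toxicity.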

Renilla = Renilla signal in NR2F6 agonist screening, cmpd/DMSO; conditions: Renilla, F4
[1] = HEK293, 0.5 uM, pGL4, read-out: Firefly pGL4, cmpd/DMSO (mean)
[2] = HEK293, 2 uM, pGL4, read-out: Firefly pGL4, cmpd/DMSO (mean)
[3] = HEK293, 10 uM, pGL4, read-out: Firefly pGL4, cmpd/DMSO (mean)
[4] = HEK293, 40 uM, pGL4, read-out: Firefly pGL4, cmpd/DMSO (mean)
[5] = HEK293, pGL4, 1% FBS, 0.5 uM, read-out: Firefly, pGL4, 1% FBS, cmpd/DMSO (mean)
[6] = HEK293, pGL4, 1% FBS, 2 uM, read-out: Firefly, pGL4, 1% FBS, cmpd/DMSO (mean)
[7] = HEK293, pGL4, 1% FBS, 10 uM, read-out: Firefly, pGL4, 1% FBS, cmpd/DMSO (mean)
[8] = HEK293, pGL4, 1% FBS, 40 uM, read-out: Firefly, pGL4, 1% FBS, cmpd/DMSO (mean)
[9] = HEK293, pGL4, 10% FBS, 0.5 uM, read-out: Firefly, pGL4, 10% FBS, cmpd/DMSO (mean)
[10] = HEK293, pGL4, 10% FBS, 2 uM, read-out: Firefly, pGL4, 10% FBS, cmpd/DMSO (mean)
[11] = HEK293, pGL4, 10% FBS, 10 uM, read-out: Firefly, pGL4, 10% FBS, cmpd/DMSO (mean)
[12] = HEK293, pGL4, 10% FBS, 40 uM, read-out: Firefly, pGL4, 10% FBS, cmpd/DMSO (mean)
[13] = read-out: Renilla, F4, cmpd/DMSO (mean)
[14] = 1% FBS, read-out: Renilla, F4, 1% FBS, cmpd/DMSO (mean)
[15] = 10% FBS, read-out: Renilla, F4, 10% FBS, cmpd/DMSO (mean)

## C[C@@H]1C[C@H](C)CN([C@H]2CS(=O)(=O)C[C@@H]2S(=O)(=O)c2cccs2)C1 [Compound D109]
NR2F6; 0.5 uM
  Firefly F4, cmpd/DMSO (mean): 1.3
NR2F6; 2 uM
  Firefly F4, cmpd/DMSO (mean): 2.3
NR2F6; 10 uM
  Firefly F4, cmpd/DMSO (mean): 4.2
NR2F6; 40 uM
  Firefly F4, cmpd/DMSO (mean): 0.4
NR2F6; 1% FBS, 10 uM
  F4, Firefly/Renilla for S/B(F4) > 3: 3.1
  Firefly, F4/pGL4 for S/B(F4) > 3: 2.6
  Firefly, F4, 1% FBS, cmpd/DMSO (mean): 5.5
NR2F6; 10% FBS, 10 uM
  F4, Firefly/Renilla for S/B(F4) > 3: 3.3
  Firefly, F4/pGL4 for S/B(F4) > 3: 3.0
  Firefly, F4, 10% FBS, cmpd/DMSO (mean): 6.5
NR2F6; 10% FBS, 40 uM
  F4, Firefly/Renilla for S/B(F4) > 3: 1.3
  Firefly, F4/pGL4 for S/B(F4) > 3: 2.8
  Firefly, F4, 10% FBS, cmpd/DMSO (mean): 3.1
NR2F6; 1% FBS, 0.5 uM
  Firefly, F4, 1% FBS, cmpd/DMSO (mean): 1.5
NR2F6; 1% FBS, 2 uM
  Firefly, F4, 1% FBS, cmpd/DMSO (mean): 1.6
NR2F6; 1% FBS, 40 uM
  Firefly, F4, 1% FBS, cmpd/DMSO (mean): 0.2
NR2F6; 10% FBS, 0.5 uM
  Firefly, F4, 10% FBS, cmpd/DMSO (mean): 1.3
NR2F6; 10% FBS, 2 uM
  Firefly, F4, 10% FBS, cmpd/DMSO (mean): 1.4
NR2F6
  Activity, cmpd/DMSO: 6.2
HEK293 pGL4; [1]
  fold induction at 0.5 µM: 1
HEK293 pGL4; [2]
  fold induction at 2 µM: 1.6
HEK293 pGL4; [3]
  fold induction at 10 µM: 3.6
HEK293 pGL4; [4]
  fold induction at 40 µM: 0.5
HEK293 pGL4; [5]
  fold induction at 0.5 µM: 1.2
HEK293 pGL4; [6]
  fold induction at 2 µM: 1.3
HEK293 pGL4; [7]
  fold induction at 10 µM: 2.1
HEK293 pGL4; [8]
  fold induction at 40 µM: 1.1
HEK293 pGL4; [9]
  fold induction at 0.5 µM: 1.4
HEK293 pGL4; [10]
  fold induction at 2 µM: 1.2
HEK293 pGL4; [11]
  fold induction at 10 µM: 2.2
HEK293 pGL4; [12]
  fold induction at 40 µM: 1.1
NR2F6 LBD; 0.5 uM
  Firefly LBD, cmpd/DMSO (mean): 1.1
NR2F6 LBD; 2 uM
  Firefly LBD, cmpd/DMSO (mean): 2.1
NR2F6 LBD; 10 uM
  Firefly LBD, cmpd/DMSO (mean): 3.2
NR2F6 LBD; 40 uM
  Firefly LBD, cmpd/DMSO (mean): 0.2
Renilla; [13]
  fold induction at 0.5 µM: 1.1
  fold induction at 2 µM: 1.2
  fold induction at 10 µM: 1.6
  fold induction at 40 µM: 0.5
Renilla; [14]
  fold induction at 0.5 µM: 1
  fold induction at 2 µM: 1.3
  fold induction at 10 µM: 1.7
  fold induction at 40 µM: 1.1
Renilla; [15]
  fold induction at 0.5 µM: 1
  fold induction at 2 µM: 1.2
  fold induction at 10 µM: 1.9
  fold induction at 40 µM: 2.4

## CCCCN(C)[C@H]1CS(=O)(=O)C[C@@H]1S(=O)(=O)c1ccc(Cl)cc1 [Compound D132]
NR2F6; 0.5 uM
  Firefly F4, cmpd/DMSO (mean): 1.5
NR2F6; 2 uM
  Firefly F4, cmpd/DMSO (mean): 1.9
NR2F6; 10 uM
  Firefly F4, cmpd/DMSO (mean): 5.5
NR2F6; 40 uM
  Firefly F4, cmpd/DMSO (mean): 1.1
NR2F6; 1% FBS, 10 uM
  F4, Firefly/Renilla for S/B(F4) > 3: 3.0
  Firefly, F4/pGL4 for S/B(F4) > 3: 1.9
  Firefly, F4, 1% FBS, cmpd/DMSO (mean): 5.0
NR2F6; 10% FBS, 10 uM
  F4, Firefly/Renilla for S/B(F4) > 3: 2.0
  Firefly, F4/pGL4 for S/B(F4) > 3: 1.2
  Firefly, F4, 10% FBS, cmpd/DMSO (mean): 3.3
NR2F6; 10% FBS, 40 uM
  F4, Firefly/Renilla for S/B(F4) > 3: 1.8
  Firefly, F4/pGL4 for S/B(F4) > 3: 3.4
  Firefly, F4, 10% FBS, cmpd/DMSO (mean): 5.4
NR2F6; 1% FBS, 0.5 uM
  Firefly, F4, 1% FBS, cmpd/DMSO (mean): 0.7
NR2F6; 1% FBS, 2 uM
  Firefly, F4, 1% FBS, cmpd/DMSO (mean): 1.3
NR2F6; 1% FBS, 40 uM
  Firefly, F4, 1% FBS, cmpd/DMSO (mean): 0.5
NR2F6; 10% FBS, 0.5 uM
  Firefly, F4, 10% FBS, cmpd/DMSO (mean): 0.9
NR2F6; 10% FBS, 2 uM
  Firefly, F4, 10% FBS, cmpd/DMSO (mean): 1.4
NR2F6
  Activity, cmpd/DMSO: 6.6
HEK293 pGL4; [1]
  fold induction at 0.5 µM: 1.6
HEK293 pGL4; [2]
  fold induction at 2 µM: 1.6
HEK293 pGL4; [3]
  fold induction at 10 µM: 4.9
HEK293 pGL4; [4]
  fold induction at 40 µM: 0.5
HEK293 pGL4; [5]
  fold induction at 0.5 µM: 1
HEK293 pGL4; [6]
  fold induction at 2 µM: 1.6
HEK293 pGL4; [7]
  fold induction at 10 µM: 2.6
HEK293 pGL4; [8]
  fold induction at 40 µM: 0.8
HEK293 pGL4; [9]
  fold induction at 0.5 µM: 0.9
HEK293 pGL4; [10]
  fold induction at 2 µM: 1.3
HEK293 pGL4; [11]
  fold induction at 10 µM: 2.7
HEK293 pGL4; [12]
  fold induction at 40 µM: 1.6
NR2F6 LBD; 0.5 uM
  Firefly LBD, cmpd/DMSO (mean): 1.1
NR2F6 LBD; 2 uM
  Firefly LBD, cmpd/DMSO (mean): 2.1
NR2F6 LBD; 10 uM
  Firefly LBD, cmpd/DMSO (mean): 4.3
NR2F6 LBD; 40 uM
  Firefly LBD, cmpd/DMSO (mean): 0.4
Renilla; [13]
  fold induction at 0.5 µM: 1
  fold induction at 2 µM: 1.2
  fold induction at 10 µM: 1.7
  fold induction at 40 µM: 1.3
Renilla; [14]
  fold induction at 0.5 µM: 1.1
  fold induction at 2 µM: 1.3
  fold induction at 10 µM: 1.7
  fold induction at 40 µM: 1.7
Renilla; [15]
  fold induction at 0.5 µM: 0.9
  fold induction at 2 µM: 1.1
  fold induction at 10 µM: 1.6
  fold induction at 40 µM: 3

## CC1CCN([C@H]2CS(=O)(=O)C[C@@H]2S(=O)(=O)c2cccs2)CC1 [Compound D106]
NR2F6; 0.5 uM
  Firefly F4, cmpd/DMSO (mean): 1.5
NR2F6; 2 uM
  Firefly F4, cmpd/DMSO (mean): 2.3
NR2F6; 10 uM
  Firefly F4, cmpd/DMSO (mean): 5.4
NR2F6; 40 uM
  Firefly F4, cmpd/DMSO (mean): 0.8
NR2F6; 1% FBS, 10 uM
  F4, Firefly/Renilla for S/B(F4) > 3: 2.5
  Firefly, F4/pGL4 for S/B(F4) > 3: 1.7
  Firefly, F4, 1% FBS, cmpd/DMSO (mean): 4.6
NR2F6; 10% FBS, 10 uM
  F4, Firefly/Renilla for S/B(F4) > 3: 3.6
  Firefly, F4/pGL4 for S/B(F4) > 3: 2.7
  Firefly, F4, 10% FBS, cmpd/DMSO (mean): 7.1
NR2F6; 1% FBS, 0.5 uM
  Firefly, F4, 1% FBS, cmpd/DMSO (mean): 0.9
NR2F6; 1% FBS, 2 uM
  Firefly, F4, 1% FBS, cmpd/DMSO (mean): 1.9
NR2F6; 1% FBS, 40 uM
  Firefly, F4, 1% FBS, cmpd/DMSO (mean): 0.5
NR2F6; 10% FBS, 0.5 uM
  Firefly, F4, 10% FBS, cmpd/DMSO (mean): 1.6
NR2F6; 10% FBS, 2 uM
  Firefly, F4, 10% FBS, cmpd/DMSO (mean): 1.4
NR2F6; 10% FBS, 40 uM
  Firefly, F4, 10% FBS, cmpd/DMSO (mean): 1.7
NR2F6
  Activity, cmpd/DMSO: 5.2
HEK293 pGL4; [1]
  fold induction at 0.5 µM: 1.1
HEK293 pGL4; [2]
  fold induction at 2 µM: 1.6
HEK293 pGL4; [3]
  fold induction at 10 µM: 3.6
HEK293 pGL4; [4]
  fold induction at 40 µM: 0.7
HEK293 pGL4; [5]
  fold induction at 0.5 µM: 1.1
HEK293 pGL4; [6]
  fold induction at 2 µM: 1.8
HEK293 pGL4; [7]
  fold induction at 10 µM: 2.8
HEK293 pGL4; [8]
  fold induction at 40 µM: 0.8
HEK293 pGL4; [9]
  fold induction at 0.5 µM: 0.9
HEK293 pGL4; [10]
  fold induction at 2 µM: 1.2
HEK293 pGL4; [11]
  fold induction at 10 µM: 2.7
HEK293 pGL4; [12]
  fold induction at 40 µM: 1.2
NR2F6 LBD; 0.5 uM
  Firefly LBD, cmpd/DMSO (mean): 1.2
NR2F6 LBD; 2 uM
  Firefly LBD, cmpd/DMSO (mean): 1.7
NR2F6 LBD; 10 uM
  Firefly LBD, cmpd/DMSO (mean): 4.0
NR2F6 LBD; 40 uM
  Firefly LBD, cmpd/DMSO (mean): 0.7
Renilla; [13]
  fold induction at 0.5 µM: 1
  fold induction at 2 µM: 1.2
  fold induction at 10 µM: 1.7
  fold induction at 40 µM: 0.5
Renilla; [14]
  fold induction at 0.5 µM: 1.2
  fold induction at 2 µM: 1.4
  fold induction at 10 µM: 1.9
  fold induction at 40 µM: 1.1
Renilla; [15]
  fold induction at 0.5 µM: 1.2
  fold induction at 2 µM: 1.1
  fold induction at 10 µM: 2
  fold induction at 40 µM: 2
